The data set concerns GENE-TOX genotoxicity assays, various organisms and cells. The data set can be described thus: GENE-TOX mutagenicity studies. The conditions noted are these: for call: Assay Type: In vivo carcinogenicity studies.
The mark [1] stands for this setting: Species/Cell Type: Neurospora crassa, Assay Type: Aneuploidy, chromosome aberrations, Assay Code: NEN-, Evaluation Type: Evaluation A (Pre-1980).
The mark [2] stands for this setting: Species/Cell Type: Rodents, Sex: Male, Assay Type: Dominant lethal test, Assay Code: DLT-, Evaluation Type: Evaluation A (Pre-1980).
[3] abbreviates: Species/Cell Type: Bacillus subtilis (H17 vs M45), Assay Type: Rec-assay, spot test, DNA effects (bacterial DNA repair), Assay Code: REW+, Evaluation Type: Evaluation A (Pre-1980).
Where [4] appears, read: Species/Cell Type: Nonhuman, Assay Type: Sister-chromatid exchange (SCE) in vitro, Assay Code: SC2+D, Dose Response: With dose response, Evaluation Type: Evaluation B (Post-1980).
Setting [5] is: Species/Cell Type: Salmonella typhimurium (one or more of the five standard strains: TA98, TA100, TA1535, TA1537, and TA1538), Assay Type: Histidine reverse gene mutation, Ames assay, Assay Code: SAL+, Evaluation Type: Evaluation A (Pre-1980).
Where [6] appears, read: Species/Cell Type: Mammalian polychromatic erythrocytes, Assay Type: Micronucleus test, chromosome aberrations, Assay Code: MNT+, Evaluation Type: Evaluation B (Post-1980).
Setting [7] is: Species/Cell Type: Salmonella typhimurium (one or more of the five standard strains: TA98, TA100, TA1535, TA1537, and TA1538), Assay Type: Histidine reverse gene mutation, Ames assay, Assay Code: SALT, Evaluation Type: Evaluation A (Pre-1980).
The mark [8] stands for this setting: Species/Cell Type: Vicia faba, Assay Type: Chromosome aberrations, Assay Code: VIC+, Evaluation Type: Evaluation A (Pre-1980).
Where [9] appears, read: Species/Cell Type: Salmonella typhimurium (one or more of the five standard strains: TA98, TA100, TA1535, TA1537, and TA1538), Assay Type: Histidine reverse gene mutation, Ames assay, Assay Code: SAL+*, Activation: With metabolic activation, Evaluation Type: Evaluation A (Pre-1980).

Active and inactive are the calls of the source. No rule for the calls is given here.

For `CCCCCCCCCCCCCC(=O)O[C@@H]1[C@@H](C)[C@@]2(O)[C@@H](C=C(CO)C[C@]3(OC)C(=O)C(C)=C[C@@H]23)[C@@H]2C(C)(C)[C@]12OC(C)=O`, the mutagenic call is “inactive; negative” (Species/Cell Type: Nonhuman, Assay Type: Sister-chromatid exchange (SCE) in vitro, Assay Code: SC2-, Evaluation Type: Evaluation A (Pre-1980)) and “no conclusion” (Species/Cell Type: Nonhuman, Assay Type: Sister-chromatid exchange (SCE) in vitro, Assay Code: SC2T, Evaluation Type: Evaluation B (Post-1980)).

For `OCCc1ccccc1`, the mutagenic call reads like this: (Species/Cell Type: Human lymphocytes, Assay Type: Sister-chromatid exchange (SCE) in vitro, Assay Code: SCLT, Evaluation Type: Evaluation B (Post-1980)) “no conclusion”; (Species/Cell Type: Human, Assay Type: Sister-chromatid exchange (SCE) in vitro, Assay Code: SC1T, Evaluation Type: Evaluation B (Post-1980)) “no conclusion”.

For the compound `Nc1cc([N+](=O)[O-])ccc1O`, the mutagenic call is “no conclusion” (Species/Cell Type: Mammalian polychromatic erythrocytes, Assay Type: Micronucleus test, chromosome aberrations, Assay Code: MNTT, Evaluation Type: Evaluation A (Pre-1980)); “inactive; negative” under setting [1]; “inactive; negative” under setting [2].

For `CNC(=O)C(C)SCCSP(=O)(OC)OC` (stereo not given), the mutagenic call reads like this: under setting [3], “active; positive”; (Species/Cell Type: Escherichia coli WP2, Assay Type: Tryptophan reverse gene mutation, Assay Code: WP2+, Evaluation Type: Evaluation A (Pre-1980)) “active; positive”; (Species/Cell Type: Escherichia coli WP2 UVRA, Assay Type: Tryptophan reverse gene mutation, Assay Code: WPU+, Evaluation Type: Evaluation A (Pre-1980)) “active; positive”; under setting [4], “active; positive”; under setting [5], “active; positive”.

As for `C=CC(=O)OCC`, the mutagenic call under setting [6] is “active; positive”.

Consider `O=S(=O)(O)c1ccc2c(N=Nc3ccc(S(=O)(=O)O)c4ccccc34)c(O)ccc2c1`, for which, where the note is “Species/Cell Type: Saccharomyces cerevisiae, Assay Type: Mitotic recombination or gene conversion, Assay Code: YEC-, Evaluation Type: Evaluation A (Pre-1980)”, the mutagenic call was “inactive; negative”.

Take `[Cl][Pt-2]([Cl])([Cl])[Cl]`: the mutagenic call (Species/Cell Type: Chinese hamster ovary (CHO) cells, Assay Type: Forward gene mutation at the HPRT locus, Assay Code: CHOT, Evaluation Type: Evaluation B (Post-1980)) was “no conclusion”.

`CCOC(C)=O`: the mutagenic call reads like this: (Species/Cell Type: Bacillus subtilis (H17 vs M45), Assay Type: Rec-assay, spot test, DNA effects (bacterial DNA repair), Assay Code: REWT, Evaluation Type: Evaluation A (Pre-1980)) “no conclusion”; (Species/Cell Type: Mammalian polychromatic erythrocytes, Assay Type: Micronucleus test, chromosome aberrations, Assay Code: MNT-, Evaluation Type: Evaluation B (Post-1980)) “inactive; negative”.

Turning to `C=Cc1ccc(C)cc1`, the mutagenic call is, setting by setting: (Species/Cell Type: Human lymphocytes, Assay Type: Sister-chromatid exchange (SCE) in vitro, Assay Code: SCL+D, Dose Response: With dose response, Evaluation Type: Evaluation B (Post-1980)) “active; positive”; (Species/Cell Type: Human, Assay Type: Sister-chromatid exchange (SCE) in vitro, Assay Code: SC1+D, Dose Response: With dose response, Evaluation Type: Evaluation B (Post-1980)) “active; positive”.

On to `COc1ccc2c3c4n(c2c1)[C@@H](C=C(C)C)OOC(C)(C)C[C@@H]4N1C(=O)[C@@H]2CCCN2C(=O)[C@]1(O)[C@H]3O`, for which the mutagenic call (Species/Cell Type: Saccharomyces cerevisiae, Assay Type: Mitotic recombination or gene conversion, Assay Code: YEH-, Evaluation Type: Evaluation A (Pre-1980)) is “inactive; negative” and the mutagenic call under setting [7] was “no conclusion”.

As for `Nc1nc(-c2ccc([N+](=O)[O-])s2)cs1`, the mutagenic call under setting [5] was “active; positive”.

As for `CC[C@@]1(O)C[C@H](O[C@H]2C[C@H](N(C)C)[C@H](O[C@H]3C[C@H](O)[C@H](O[C@H]4CCC(=O)[C@H](C)O4)[C@H](C)O3)[C@H](C)O2)c2c(cc3c(c2O)C(=O)c2c(O)cccc2C3=O)[C@H]1C(=O)OC`, the mutagenic call under setting [7] is “no conclusion”.

As to `CCNc1nc(Cl)nc(NC(C)C)n1`, the mutagenic call is, setting by setting: (Species/Cell Type: Aspergillus nidulans, Assay Type: Reverse gene mutation, Assay Code: ASR+*, Activation: With metabolic activation, Evaluation Type: Evaluation A (Pre-1980)) “active; positive”; (Species/Cell Type: Drosophila melanogaster, Assay Type: Aneuploidy, sex chromosome gain, chromosome aberrations, Assay Code: DAGT, Evaluation Type: Evaluation A (Pre-1980)) “no conclusion”; (Species/Cell Type: Drosophila melanogaster, Assay Type: Aneuploidy, whole sex chromosome loss, chromosome aberrations, Assay Code: DACT, Evaluation Type: Evaluation A (Pre-1980)) “no conclusion”; (Species/Cell Type: Drosophila melanogaster, Assay Type: Sex-linked recessive lethal gene mutation, Assay Code: SRLT, Evaluation Type: Evaluation A (Pre-1980)) “no conclusion”; (Species/Cell Type: Hordeum vulgare (barley), Assay Type: Chromosome aberrations, Assay Code: HOC+, Evaluation Type: Evaluation A (Pre-1980)) “active; positive”; under setting [1], “inactive; negative”. The mutagenic call was “active; positive” (Species/Cell Type: Saccharomyces cerevisiae, Assay Type: Mitotic recombination or gene conversion, Assay Code: YEC+*, Activation: With metabolic activation, Evaluation Type: Evaluation A (Pre-1980)); “inactive; negative” (Species/Cell Type: Tradescantia species, Assay Type: Gene mutation, Assay Code: TRM-, Evaluation Type: Evaluation A (Pre-1980)); “active; positive” under setting [8]; “active; positive” (Species/Cell Type: Zea mays (corn), Assay Type: Gene mutation, Assay Code: ZEM+F, Evaluation Type: Evaluation A (Pre-1980)).

Consider `CC(=O)N1CC1`, for which the mutagenic call under setting [8] was “active; positive”.

`Cc1ccc2cccnc2c1`: the mutagenic call under setting [9] was “active; positive”.

Consider `[O]=[Sn]([OH])[OH]`, for which, under “Species/Cell Type: Bacillus subtilis (H17 vs M45), Assay Type: Rec-assay, spot test, DNA effects (bacterial DNA repair), Assay Code: REW-, Evaluation Type: Evaluation A (Pre-1980)”, the mutagenic call was “inactive; negative”.

`Clc1ccc(N=Nc2ccc(Cl)c(Cl)c2)cc1Cl`: the mutagenic call is “active; positive” (Species/Cell Type: Aspergillus nidulans, Assay Type: Forward gene mutation, Assay Code: ASF+, Evaluation Type: Evaluation A (Pre-1980)) and “active; positive” (Species/Cell Type: Rat primary hepatocytes, Assay Type: Unscheduled DNA synthesis (UDS) in vitro, DNA effects, Assay Code: UDP+D, Dose Response: With dose response, Evaluation Type: Evaluation A (Pre-1980)).

On to `O=S1(=O)OCCCO1`, for which the mutagenic call was “active; positive” under setting [5]; “active; positive” (Species/Cell Type: Salmonella typhimurium, Assay Type: Forward and reverse gene mutation, host-mediated assay, Assay Code: HMA+, Evaluation Type: Evaluation A (Pre-1980)).

For `C[C@H](N)C(=O)c1ccccc1`, the mutagenic call under setting [6] was “active; positive”.

For `O.O.O.O.O.[Cd+2].[Cd+2].[Cl-].[Cl-].[Cl-].[Cl-]`, the mutagenic call (Species/Cell Type: Nonhuman, Assay Type: Sister-chromatid exchange (SCE) in vitro, Assay Code: SC2+, Evaluation Type: Evaluation B (Post-1980)) was “active; positive”.

For the compound `CCOP(=O)(OCC)Oc1ccc([N+](=O)[O-])cc1`, the mutagenic call under setting [4] was “active; positive”.

With `O=C(OCC1=CCN2CC[C@@H](OC(=O)c3ccc(Cl)cc3)[C@@H]12)c1ccc(Cl)cc1`, the mutagenic call (Species/Cell Type: Allium cepa, Assay Type: Chromosome aberrations, Assay Code: ALC+, Evaluation Type: Evaluation A (Pre-1980)) is “active; positive”.

Turning to `c1ccc2c(c1)cc1ccc3cccc4c5ccccc5c2c1c34`, the call (Species/Cell Type: Nonhuman, Assay Code: CCG+, Evaluation Type: Evaluation A (Pre-1980)) is “active; positive”.

As for `Oc1ccc2ccccc2c1N=Nc1cc[c]([Hg+])cc1`, the mutagenic call under setting [7] is on record as “no conclusion”.

Turning to `NCC(O)CCl` (stereo not given), under setting [2], the mutagenic call was “inactive; negative”.

On to `Oc1cc2ccc3cc4ccccc4c4ccc(c1)c2c34`, for which the mutagenic call runs as follows: (Species/Cell Type: Chinese hamster lung (V79) cells, Assay Type: Forward gene mutation at the HPRT or ouabain locus, Assay Code: V79-, Evaluation Type: Evaluation A (Pre-1980)) “inactive; negative”; under setting [9], “active; positive”. For the same compound, the call (Species/Cell Type: Nonhuman, Assay Code: CCG+L, Evaluation Type: Evaluation A (Pre-1980)) was “active; positive”.

Regarding `Cl[Te](Cl)(Cl)Cl`, under setting [3], the mutagenic call was “active; positive”.

Regarding `Clc1ccc2c(Cl)ccnc2c1`, the mutagenic call under setting [7] is given as “no conclusion”.

In the case of `CC1C[C@@H]2CCC[C@H]2[C@@H]2CCC3CCCC[C@@H]3[C@@H]12` (stereo not given in full), where the note is “Species/Cell Type: Syrian hamster embryo (SHE) cells, Assay Type: Cell transformation, clonal assay, Assay Code: CTC+, Evaluation Type: Evaluation A (Pre-1980)”, the mutagenic call is “active; positive”.

In the case of `CC1(C)CN1`, the mutagenic call (Species/Cell Type: Schizosaccharomyces pombe, Assay Type: Reverse gene mutation, Assay Code: YEZ+, Evaluation Type: Evaluation A (Pre-1980)) was “active; positive”.

For the compound `C=CC(=O)OC`, the mutagenic call (Species/Cell Type: Mammalian polychromatic erythrocytes, Assay Type: Micronucleus test, chromosome aberrations, Assay Code: MNT+U, Dose Response: Unconfirmed positive response, Evaluation Type: Evaluation B (Post-1980)) is “active; positive”.

For the origin of these results see PubChem BioAssay AID1259408 (Genetic Toxicology Data Bank (GENE-TOX), 2018).
